Reference: patent publication US6677331B2, “Carbapenem derivatives” (Meiji Seika Kaisha, Ltd., priority 1998, dated 2004)

Assays:
[1] = solubility (remark in the acute toxicity test); assay type: physicochemical; conditions: reason for the lower i.v. dose
H. influenzae PRC2 = experiment: Test 1: Anti-Microbial Activities (MIC); assay type: cell-based; conditions: Haemophilus influenzae, Sensitivity Disk agar-N+5% Horse blood, inoculants 10^6 CFU/ml, read-out: minimum inhibiting concentrations (MIC)
Procedure: (§1) The minimum inhibiting concentrations (MIC, μg/ml) of the compounds according to the present invention to various pathogenic bacteria was measured in accordance with the method described in CHEMOTHERAPY, vol. 16, No. 1,99, 1968. The culture medium for measurement was Sensitivity Disk agar-N+5% Horse blood, and the amount of inoculants was 10^6 CFU/ml.

S. aureus M126 = experiment: Test 1: Anti-Microbial Activities (MIC); assay type: cell-based; conditions: Staphylococcus aureus; S. aureus M126, methicillin-hyperresistant strain (MRSA); Sensitivity Disk agar-N+5% Horse blood; inoculants 10^6 CFU/ml; read-out: minimum inhibiting concentrations (MIC)
Procedure: as §1

K. pneumoniae PCI602 = experiment: Test 1: Anti-Microbial Activities (MIC); assay type: cell-based; conditions: Klebsiella pneumoniae, Sensitivity Disk agar-N+5% Horse blood, inoculants 10^6 CFU/ml, read-out: minimum inhibiting concentrations (MIC)
Procedure: as §1

S. pneumoniae PRC9 = experiment: Test 1: Anti-Microbial Activities (MIC); assay type: cell-based; conditions: Streptococcus pneumoniae; S. pneumoniae PRC9, penicillin-hyperresistant strain (PRSP); Sensitivity Disk agar-N+5% Horse blood; inoculants 10^6 CFU/ml; read-out: minimum inhibiting concentrations (MIC)
Procedure: as §1

E. coli NIHJ JC-2 = experiment: Test 1: Anti-Microbial Activities (MIC); assay type: cell-based; conditions: Escherichia coli, NIHJJC2, Sensitivity Disk agar-N+5% Horse blood, inoculants 10^6 CFU/ml, read-out: minimum inhibiting concentrations (MIC)
Procedure: as §1

E. hirae ATCC8043 = experiment: Test 1: Anti-Microbial Activities (MIC); assay type: cell-based; conditions: Enterococcus hirae, Sensitivity Disk agar-N+5% Horse blood, inoculants 10^6 CFU/ml, read-out: minimum inhibiting concentrations (MIC)
Procedure: as §1

S. aureus 209P JC-1 = experiment: Test 1: Anti-Microbial Activities (MIC); assay type: cell-based; conditions: Staphylococcus aureus, Sensitivity Disk agar-N+5% Horse blood, inoculants 10^6 CFU/ml, read-out: minimum inhibiting concentrations (MIC)
Procedure: as §1

E. faecalis W-73 = experiment: Test 1: Anti-Microbial Activities (MIC); assay type: cell-based; conditions: Enterococcus faecalis, W73, Sensitivity Disk agar-N+5% Horse blood, inoculants 10^6 CFU/ml, read-out: minimum inhibiting concentrations (MIC)
Procedure: as §1

M. catarrhalis W-0500 = experiment: Test 1: Anti-Microbial Activities (MIC); assay type: cell-based; conditions: Moraxella catarrhalis, W0500, Sensitivity Disk agar-N+5% Horse blood, inoculants 10^6 CFU/ml, read-out: minimum inhibiting concentrations (MIC)
Procedure: as §1

P. vulgaris GN7919 = experiment: Test 1: Anti-Microbial Activities (MIC); assay type: cell-based; conditions: Proteus vulgaris, Sensitivity Disk agar-N+5% Horse blood, inoculants 10^6 CFU/ml, read-out: minimum inhibiting concentrations (MIC)
Procedure: as §1

S. epidermidis ATCC14990 = experiment: Test 1: Anti-Microbial Activities (MIC); assay type: cell-based; conditions: Staphylococcus epidermidis, Sensitivity Disk agar-N+5% Horse blood, inoculants 10^6 CFU/ml, read-out: minimum inhibiting concentrations (MIC)
Procedure: as §1

C. freundii GN346 = experiment: Test 1: Anti-Microbial Activities (MIC); assay type: cell-based; conditions: Citrobacter freundii, Sensitivity Disk agar-N+5% Horse blood, inoculants 10^6 CFU/ml, read-out: minimum inhibiting concentrations (MIC)
Procedure: as §1

H. influenzae PRC44 = experiment: Test 1: Anti-Microbial Activities (MIC); assay type: cell-based; conditions: Haemophilus influenzae, Sensitivity Disk agar-N+5% Horse blood, inoculants 10^6 CFU/ml, read-out: minimum inhibiting concentrations (MIC)
Procedure: as §1

[2] = Test 5: Acute Toxicity (i.v.); assay type: in vivo, mice (ICR, male)
Procedure: The compounds of Examples 44, 62, 88, and 111 were tested again in the same manner as the above provided that cilastatin sodium was co-administered.

[3] = Test 4: Oral Absorption Ability Test (2); assay type: in vivo, mice (ICR, male)
Procedure: The compounds of Examples 62, 63 and 69 were orally administered to mice (ICR, male, n=3) in an amount of 0.5 mg (based on the weight of the compound of Example 62 from which the compounds of Examples 63 and 69 were derived)/0.2 ml/mouse as a 0.5% methylcellulose suspension, and then cilastatin was immediately administered subcutaneously in the same amount (because of the instability of the compound of Example 62 to mouse DHP-I, cilastatin as an inhibitor of DHP-I was used in combination). As a result, the compound of Example 62 was excreted in urine in 6%, 18% and 35% of bio-availability (BA) by 24 hours after the compounds of Examples 62, 63 and 69 were administered. The “BA” is a ratio of the recovery of a mother compound in urine when a test compound, i.e., a pro-drug of the mother compound , is orally administered to the recovery of the mother compound when the mother compound is administered intravenously. Some compounds were tested in the same manner as in Test 3 provided that 5%HCO60 was used instead of 0.5% methylcellulose suspension.

porcine renal DHP-I = target: T1, porcine renal DHP-I (Sus scrofa, UniProt P22412); experiment: Test 2: stability against DHP-I (porcine); conditions: partly purified Porcine DHP-I, 100 μg (titer)/ml, 37° C., HPLC
T1 sequence (P22412 17-384): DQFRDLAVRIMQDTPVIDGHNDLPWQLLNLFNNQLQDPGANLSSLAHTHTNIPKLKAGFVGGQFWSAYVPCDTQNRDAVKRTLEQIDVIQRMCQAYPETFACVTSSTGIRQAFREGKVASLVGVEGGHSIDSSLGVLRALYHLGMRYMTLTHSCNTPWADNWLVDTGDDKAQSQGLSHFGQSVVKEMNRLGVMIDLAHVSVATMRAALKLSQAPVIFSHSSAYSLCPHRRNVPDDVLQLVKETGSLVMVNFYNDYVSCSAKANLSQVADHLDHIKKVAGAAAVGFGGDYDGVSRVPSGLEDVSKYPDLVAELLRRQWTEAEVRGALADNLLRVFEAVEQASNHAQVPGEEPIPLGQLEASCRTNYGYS

mouse DHP-I = target: T2, mouse DHP-I (Mus musculus, UniProt P31428); experiment: Test 2: stability against DHP-I (mouse)
T2 sequence (P31428 17-384): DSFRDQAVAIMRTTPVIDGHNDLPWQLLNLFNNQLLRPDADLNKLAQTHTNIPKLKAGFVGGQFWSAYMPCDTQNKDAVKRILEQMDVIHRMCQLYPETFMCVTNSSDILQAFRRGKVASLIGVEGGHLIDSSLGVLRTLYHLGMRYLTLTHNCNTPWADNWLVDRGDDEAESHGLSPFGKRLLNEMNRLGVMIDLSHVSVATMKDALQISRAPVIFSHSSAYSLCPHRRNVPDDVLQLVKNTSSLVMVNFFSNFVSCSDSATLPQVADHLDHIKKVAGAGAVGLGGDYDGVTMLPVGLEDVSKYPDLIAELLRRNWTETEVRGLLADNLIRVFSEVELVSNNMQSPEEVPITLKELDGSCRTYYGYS

Compound	MIC (H. influenzae PRC2) [µg/mL]	MIC (S. aureus M126) [µg/mL]	MIC (K. pneumoniae PCI602) [µg/mL]	MIC (S. pneumoniae PRC9) [µg/mL]	MIC (E. coli NIHJ JC-2) [µg/mL]	MIC (E. hirae ATCC8043) [µg/mL]	MIC (S. aureus 209P JC-1) [µg/mL]	MIC (E. faecalis W-73) [µg/mL]	MIC (M. catarrhalis W-0500) [µg/mL]	MIC (P. vulgaris GN7919) [µg/mL]	MIC (S. epidermidis ATCC14990) [µg/mL]	MIC (C. freundii GN346) [µg/mL]	MIC (H. influenzae PRC44) [µg/mL]	bio-availability (BA): mother compound excreted in urine by 24 hours ([3]; mouse, in vivo, po) [%]	further results
CSc1ncn2cc(C3=C(C(=O)[O-])N4C(=O)[C@H]([C@@H](C)O)[C@H]4[C@H]3C)sc12.[Na+] [Example 111, Sodium (1S,5R,6S)-6-((1R)-1-Hydroxyethyl)-1-methyl-2-(7-methylthioimidazo[5,1-b]thiazol-2-yl)-1-carbapen-2-em-3-carboxylate]	< 0.025	1.56	0.78	0.05	0.78	0.39	< 0.025	0.2	< 0.025	0.39	< 0.025	1.56	0.05		solubility [1]: limited solubility; survival (acute toxicity) ([2]; mice, 1,500 mg/kg i.v.): All of the animal survived; survival (acute toxicity) ([2]; mice, 1,500 mg/kg i.v., cilastatin sodium co-administered): All of the animal survived
CSc1ncn2cc(C3=C(C(=O)OCOC(=O)c4ccccc4)N4C(=O)[C@H]([C@@H](C)O)[C@H]4[C@H]3C)sc12 [Example 253, Benzoylxymethyl (1S,5R,6S)-6-((1R)-1-hydroxyethyl)-1-methyl-2-(7-methylthioimidazo-[5,1-b]thiazol-2-yl)-1-carbapen-2-em-3-carboxylate]														37	
CC(C)C1CC[C@H](C)CC1OC(=O)OCOC(=O)C1=C(c2cn3cnc(S(C)(=O)=O)c3s2)[C@H](C)[C@@H]2[C@@H]([C@@H](C)O)C(=O)N12 (stereo partly drawn) [Example 218, (1S,2R,5s)-(d)-Menthyloxycarbonyloxymethyl (1S,5R,6S)-6-((1R)-1-hydroxyethyl)-2-(7-methanesulfonylimidazo[5,1-b]thiazol2-yl)-1-methyl-1-carbapen-2-em-3-carboxylate]															bio-availability (BA): mother compound excreted in urine by 24 hours ([3]; mice, oral, same as Test 3 but 5%HCO60 instead of 0.5% methylcellulose suspension): 26%
CSc1ncn2cc(C3=C(C(=O)OC(C)OC(=O)OCCC(C)C)N4C(=O)[C@H]([C@@H](C)O)[C@H]4[C@H]3C)sc12 (stereo partly drawn) [Example 273, 1-(3-Methyl-1-butyloxycarbonylbxy)ethyl (1S,5R,6S)-6-((1R)-1-hydroxyethyl)-1-methyl-2-(7-methylthioimidazo[5,1-b]thiazol-2-yl1)-1-carbapen-2-em-3-carboxylate]														36	
1-Adamantylcarbonyloxymethyl (1S,5R,6S)-6-((1R)-1-hydroxyethyl)-methyl-2-(7-methylthio-imidazo[5,1-b]thiazol-2-yl)-1-carbapen-2-em-3-carboxylate [Example 250]														39	
C[C@@H](O)[C@H]1C(=O)N2C(C(=O)[O-])=C(c3cn4cnc(S(C)(=O)=O)c4s3)[C@H](C)[C@H]12.[Na+] [Example 62, Sodium (1S,5R,6S)-6-((1R)-1-Hydroxyethyl)-2-(7-methanesulfonylimidazo[5,1-b]thiazol-2-yl)-1-methyl-1-carbapen-2-em-3-carboxylate]	< 0.025	1.56	0.05	0.05	0.05	0.39	< 0.025	0.2	< 0.025	0.1	< 0.025	1.56	0.05		residual amounts (%) after 3 hours (porcine renal DHP-I): 64%; stability to mouse DHP-I (in words) (mouse DHP-I): instability; residual amounts (%) after 3 hours (mouse DHP-I; partly purified Mouse DHP-I, 100 μg (titer)/ml, 37° C., 3 hours, HPLC): 1.5%; survival (acute toxicity) ([2]; mice, 2,000 mg/kg i.v.): All of the animal survived; survival (acute toxicity) ([2]; mice, 2,000 mg/kg i.v., cilastatin sodium co-administered): All of the animal survived
